The subject of one data set is red blood cell. The class given is cell-based, human. Here is the method:
This process was repeated for the PEGylated device. Red blood cell lysis was then analyzed to determine release of free hemoglobin in plasma. Plasma hemoglobin was measured by according to well-established protocols. Following passage through the device, the blood samples were centrifuged (500×g) and the supernatant was spectrophotometrically analyzed for hemoglobin release using a plate-reader (Tecan, Infinite M1000 Pro) at 451 nm in order to determine percent hemolysis relative to the Triton-X positive control. Triton X-100 (Sigma-Aldrich) was diluted in diH2O to result in a 20 v/v % Triton-X detergent concentration, which served as the positive control. The negative control used was EDTA-anticoagulated whole, human blood that was not flowed through a double spiral microfluidic device (i.e. untreated). Percent of hemoglobin release was calculated according to the following equation: Hemoglobin release (%)=[(Sample451nm−Negative control451nm=)/(Positive control451nm−Negative control451nm)]×100%. Complete blood counts of each sample (i.e. untreated, colistinated device, PEGylated device) were performed by the Vanderbilt University Translational Pathology Shared Resource Core.

In data set [1] the test system is Acinetobacter baumannii 'Patient 2'. The data set can be described thus: Colistin MIC by standard agar dilution. The settings on record: colistin-resistant isolate. Type of data set: cell-based. Here is the method: Bacterial cultures (i.e., Acinetobacter baumannii ATCC17978, Colistin-resistant Acinetobacter baumannii 19606R^41. Colistin-resistant Acinetobacter baumannii-Patient 2′. Klebsiella pneumoniae ATCC700603. Bacillus subtilis 1A578 (Bacillus Genetic Stock Center), Staphylococcus aureus ATCC29213) were plated on LB agar (Sigma-Aldrich, Lot #SLBR1403V) and grown overnight at 37° C. Single colonies of each strain were then inoculated in LB broth (IX) (Gibco, Lot #1803272) and grown at 37° C. for 18 hours shaking at 150 rpm. Cell concentrations were measured with OD595 spectrometry (Infinite F500. Tecan).
Colistin minimum inhibitory concentrations (MIC) of bacterial strains were confirmed by standard agar dilution methods. Results were interpreted according to the Clinical and Laboratory Standards Institute susceptibility breakpoints.
On the technique in general: In agar dilution the substance is mixed into plates at graded concentrations.

For “Triton X-100 [Positive control (20 v/v % Triton-X)]”, the “Hemolysis (%)” value in the data set with red blood cell is given as 100% ± 3.08%.
For the substance Colistin, the “Colistin MIC” value in data set [1] was greater than 256 µg/mL.
